Reference: patent publication US20260138958A1, “SUBSTITUTED N-PHENYLURACILS AND SALTS THEREOF, AND USE THEREOF AS HERBICIDAL ACTIVE SUBSTANCES” (Bayer Aktiengesellschaft, priority 2022, published 2026)

What was measured:
Type in all cases: in vivo
[1] = test system: Triticum aestivum (TRZAS); assay: Post-emergence crop plant compatibility, greenhouse pot test; settings: crop plant, post-emergence, 1.25 g/ha
Experimental: (§1) Seeds of monocotyledonous and dicotyledonous weeds and crop plants were placed in sandy loam in plastic or wood-fibre pots, covered with soil and cultivated in a greenhouse under controlled growth conditions. 2 to 3 weeks after sowing, the test plants were treated at the one-leaf stage. The compounds of the invention, formulated in the form of wettable powders (WP) or as emulsion concentrates (EC), were then sprayed onto the green parts of the plants as aqueous suspension or emulsion with addition of 0.5% additive at a water application rate of 600 l/ha (converted). After the test plants had been kept in the greenhouse under optimum growth conditions for about 3 weeks, the activity of the preparations was rated visually in comparison to untreated controls. For example, 100% activity=the plants have died, 0% activity=like control plants.
The observed effects on selected crop plants are reported here in comparison to the untreated controls (values in %).

[2] = test system: Pharbitis purpurea (PHBPU); assay: Post-emergence herbicidal action, greenhouse pot test
Experimental: as §1

[3] = test system: Veronica persica (VERPE); assay: as above
Experimental: as §1

[4] = test system: Bassia scoparia (KCHSC); assay: as above
Experimental: as §1

[5] = test system: Setaria viridis (SETVI); assay: as above
Experimental: as §1

[6] = test system: Tripleurospermum inodorum (MATIN); assay: as above
Experimental: as §1

[7] = test system: Abutilon theophrasti (ABUTH); assay: as above
Experimental: as §1

[8] = test system: Lolium rigidum (LOLRI); assay: as above
Experimental: as §1

[9] = test system: Amaranthus retroflexus (AMARE); assay: as above
Experimental: as §1

[10] = test system: Alopecurus myosuroides (ALOMY); assay: as above
Experimental: as §1

[11] = test system: Viola tricolor (VIOTR); assay: as above
Experimental: as §1

[12] = test system: Digitaria sanguinalis (DIGSA); assay: as above
Experimental: as §1

[13] = test system: Echinochloa crus-galli (ECHCG); assay: as above
Experimental: as §1

[14] = test system: Polygonum convolvulus (POLCO); assay: as above
Experimental: as §1

SMILES	Post-emergence effect at 1.25 g/ha against TRZAS in % [1] [%]	Post-emergence effect at 5 g/ha against PHBPU in % [2] [%]	Post-emergence effect at 20 g/ha against PHBPU in % [2] [%]	Post-emergence effect at 1.25 g/ha against VERPE in % [3] [%]	Post-emergence effect at 5 g/ha against VERPE in % [3] [%]	Post-emergence effect at 20 g/ha against VERPE in % [3] [%]	Post-emergence effect at 1.25 g/ha against KCHSC in % [4] [%]	Post-emergence effect at 5 g/ha against KCHSC in % [4] [%]	Post-emergence effect at 20 g/ha against KCHSC in % [4] [%]	Post-emergence effect at 1.25 g/ha against SETVI in % [5] [%]	Post-emergence effect at 5 g/ha against SETVI in % [5] [%]	Post-emergence effect at 20 g/ha against SETVI in % [5] [%]	Post-emergence effect at 20 g/ha against MATIN in % [6] [%]	Post-emergence effect at 5 g/ha against ABUTH in % [7] [%]	Post-emergence effect at 20 g/ha against ABUTH in % [7] [%]	Post-emergence effect at 20 g/ha against LOLRI in % [8] [%]	Post-emergence effect at 1.25 g/ha against AMARE in % [9] [%]	Post-emergence effect at 5 g/ha against AMARE in % [9] [%]	Post-emergence effect at 20 g/ha against AMARE in % [9] [%]	Post-emergence effect at 20 g/ha against ALOMY in % [10] [%]	further results
Cn1c(C(F)(F)F)cc(=O)n(-c2cc(Oc3ccccc3OCC(=O)OCC3CC3(C)C)c(Cl)cc2F)c1=O (centres unmarked) [I.7-9]	20	100	100	90	100	100	90	100	100	100	100	100	100	100	100	90	100	100	100	100	Post-emergence effect at 1.25 g/ha against PHBPU in % [2]: 100%; Post-emergence effect at 1.25 g/ha against ABUTH in % [7]: 100%; Post-emergence effect at 1.25 g/ha against VIOTR in % [11]: 100%; Post-emergence effect at 5 g/ha against VIOTR in % [11]: 100%; Post-emergence effect at 20 g/ha against VIOTR in % [11]: 100%; Post-emergence effect at 1.25 g/ha against DIGSA in % [12]: 100%; Post-emergence effect at 5 g/ha against DIGSA in % [12]: 100%; Post-emergence effect at 20 g/ha against DIGSA in % [12]: 100%; Post-emergence effect at 1.25 g/ha against ECHCG in % ([13]; 1.25 g/ha): 80%; Post-emergence effect at 5 g/ha against ECHCG in % [13]: 100%; Post-emergence effect at 20 g/ha against ECHCG in % [13]: 100%; Post-emergence effect at 20 g/ha against POLCO in % [14]: 100%
Cn1c(C(F)(F)F)cc(=O)n(-c2cc(Oc3ccccc3OCC(=O)OCC3(C#N)CC3)c(Cl)cc2F)c1=O [I.7-7]	10	100	100	100	100	100	100	100	100	100	100	100	100	100	100	100	100	100	100	100	Post-emergence effect at 1.25 g/ha against PHBPU in % [2]: 100%; Post-emergence effect at 5 g/ha against MATIN in % [6]: 100%; Post-emergence effect at 5 g/ha against ALOMY in % [10]: 80%; Post-emergence effect at 1.25 g/ha against VIOTR in % [11]: 100%; Post-emergence effect at 5 g/ha against VIOTR in % [11]: 100%; Post-emergence effect at 20 g/ha against VIOTR in % [11]: 100%; Post-emergence effect at 5 g/ha against DIGSA in % [12]: 100%; Post-emergence effect at 20 g/ha against DIGSA in % [12]: 100%; Post-emergence effect at 5 g/ha against ECHCG in % [13]: 100%; Post-emergence effect at 20 g/ha against ECHCG in % [13]: 100%; Post-emergence effect at 5 g/ha against POLCO in % [14]: 100%; Post-emergence effect at 20 g/ha against POLCO in % [14]: 100%
Cn1c(C(F)(F)F)cc(=O)n(-c2cc(Oc3ccccc3OCC(=O)OCC3CC3(F)F)c(Cl)cc2F)c1=O (centres unmarked) [I.7-8]	20	100	100	100	100	100	100	100	100	100	100	100	100	100	100	80	100	100	100	100	Post-emergence effect at 1.25 g/ha against PHBPU in % [2]: 80%; Post-emergence effect at 5 g/ha against MATIN in % [6]: 100%; Post-emergence effect at 1.25 g/ha against ABUTH in % [7]: 100%; Post-emergence effect at 5 g/ha against ALOMY in % [10]: 80%; Post-emergence effect at 1.25 g/ha against VIOTR in % [11]: 100%; Post-emergence effect at 5 g/ha against VIOTR in % [11]: 100%; Post-emergence effect at 20 g/ha against VIOTR in % [11]: 100%; Post-emergence effect at 1.25 g/ha against DIGSA in % [12]: 100%; Post-emergence effect at 5 g/ha against DIGSA in % [12]: 100%; Post-emergence effect at 20 g/ha against DIGSA in % [12]: 100%; Post-emergence effect at 5 g/ha against ECHCG in % [13]: 100%; Post-emergence effect at 20 g/ha against ECHCG in % [13]: 100%; Post-emergence effect at 5 g/ha against POLCO in % [14]: 100%; Post-emergence effect at 20 g/ha against POLCO in % [14]: 100%
Cn1c(C(F)(F)F)cc(=O)n(-c2cc(Oc3ccccc3OCC(=O)OC(C#N)C3CC3)c(Cl)cc2F)c1=O (centres unmarked) [I.7-4]	20	100	100	100	100	100	100	100	100	100	100	100	100	100	100	100	100	100	100	100	Post-emergence effect at 1.25 g/ha against PHBPU in % [2]: 80%; Post-emergence effect at 5 g/ha against MATIN in % [6]: 100%; Post-emergence effect at 1.25 g/ha against ABUTH in % [7]: 100%; Post-emergence effect at 5 g/ha against ALOMY in % [10]: 80%; Post-emergence effect at 1.25 g/ha against VIOTR in % [11]: 100%; Post-emergence effect at 5 g/ha against VIOTR in % [11]: 100%; Post-emergence effect at 20 g/ha against VIOTR in % [11]: 100%; Post-emergence effect at 5 g/ha against DIGSA in % [12]: 100%; Post-emergence effect at 20 g/ha against DIGSA in % [12]: 100%; Post-emergence effect at 5 g/ha against ECHCG in % [13]: 100%; Post-emergence effect at 20 g/ha against ECHCG in % [13]: 100%; Post-emergence effect at 5 g/ha against POLCO in % [14]: 100%; Post-emergence effect at 20 g/ha against POLCO in % [14]: 100%
Cn1c(C(F)(F)F)cc(=O)n(-c2cc(Oc3ccccc3OCC(=O)OCC3(F)CC3)c(Cl)cc2F)c1=O [I.7-6]	20	100	100	100	100	100	100	100	100	100	100	100	100	100	100	80	100	100	100	100	Post-emergence effect at 1.25 g/ha against ABUTH in % [7]: 100%; Post-emergence effect at 1.25 g/ha against ALOMY in % ([10]; 1.25 g/ha): 80%; Post-emergence effect at 5 g/ha against ALOMY in % [10]: 100%; Post-emergence effect at 1.25 g/ha against VIOTR in % [11]: 100%; Post-emergence effect at 5 g/ha against VIOTR in % [11]: 100%; Post-emergence effect at 20 g/ha against VIOTR in % [11]: 100%; Post-emergence effect at 1.25 g/ha against DIGSA in % [12]: 100%; Post-emergence effect at 5 g/ha against DIGSA in % [12]: 100%; Post-emergence effect at 20 g/ha against DIGSA in % [12]: 100%; Post-emergence effect at 5 g/ha against ECHCG in % [13]: 100%; Post-emergence effect at 20 g/ha against ECHCG in % [13]: 100%; Post-emergence effect at 5 g/ha against POLCO in % [14]: 100%; Post-emergence effect at 20 g/ha against POLCO in % [14]: 100%
